{"source": "paper PMC7746945", "about": "(Neuro-Oncology, 2020)", "key": {"[1]": {"test": "Whole body autoradiography after single oral [14C]-olaparib", "type": "in vivo, pigmented rats", "conditions": "for radioactivity concentration, Blood / radioactivity concentration, Brain / radioactivity concentration, Choroid plexus / radioactivity concentration, Kidney cortex (outer) / radioactivity concentration, Large intestine mucosa / radioactivity concentration, Liver / radioactivity concentration, Meninges / radioactivity concentration, Pineal body / radioactivity concentration, Plasma / radioactivity concentration, Small intestine mucosa / radioactivity concentration, Spinal cord: rat, oral [14C]-olaparib 15 mg/kg", "experimental": "(§1) Canine kidney epithelial cells, stably expressing human MDR1 cDNA (Madin-Darby canine kidney type II [MDCKII]–MDR1 cells) or empty vector (MDCKII control), were used to model the intact BBB and determine permeability coefficients of (^14C)-olaparib in the presence of ketoconazole (25 μM). Whole body autoradiography was performed on male pigmented rats after single oral administration of [^14C]-olaparib (15 mg/kg; 5 MBq/kg). For autoradiography studies, animal care and experiments were carried out in accordance with AstraZeneca guidelines, which comply with UK standards. […] Xenograft experiments were performed under the relevant UK Home Office Project Licence and carried out with ethical approval from the University of Glasgow under the Animal (Scientific Procedures) Act 1986 and the EU directive 2010. Mice were maintained in individually ventilated cages with environmental enrichment and following the guidelines of ARRIVE (Animal Research: Reporting of In Vivo Experiments). […] Ratiometric t-test analysis determined SER confidence intervals and P-values. Further details are available in the Supplementary Material.\nApparent permeability coefficients were calculated for apical to basolateral (Papp a‒b) and basolateral to apical transport (Papp b‒a) as described in Methods. […] (B) Single oral doses of 15 mg/kg [14C]-olaparib were administered to male pigmented rats that were subsequently culled, sectioned, and subjected to whole body autoradiography at the timepoints shown. Radioactivity was excluded from the central nervous system in all animals at all timepoints. […] Blood, tumor, and contralateral (non tumor bearing) brain were harvested and snap frozen at the time points shown. […] Note different y-axis scales.\nFor autoradiography studies, animal care and experiments were carried out in accordance with AstraZeneca guidelines. Male and female pigmented rats and female BALB/c nu/nu mice bearing subcutaneous HCT-116 colorectal carcinoma xenografts were treated with 15 mg/kg [^14C]-olaparib. Animals were culled by asphyxiation, carcasses frozen in hexane and solid carbon dioxide then subjected to whole body autoradiography. Radioactivity concentrations in tissue were quantified from whole-body autoradiograms using a validated image analysis system."}, "E2 cells": {"tested_on": "E2 cells", "test": "Clonogenic survival radiosensitization assay", "type": "cell-based, human", "conditions": "E2, MGMT methylated, 1–5 Gy", "experimental": "as §1\n(§2) Visible colonies containing at least 50 cells were counted 14–21 days after treatment and surviving fraction calculated. The linear quadratic model was fitted using maximum likelihood estimation and integrated to determine the mean inactivation dose (MID) for each experimental condition."}, "G1 cells": {"tested_on": "G1 cells", "test": "Clonogenic survival radiosensitization assay", "type": "cell-based, human", "conditions": "G1, MGMT methylated, olaparib 100 nM, 1–5 Gy", "experimental": "as §1, §2"}, "G7 cells": {"tested_on": "G7 cells", "test": "Clonogenic survival radiosensitization assay", "type": "cell-based, human", "conditions": "G7, MGMT methylated, 1–5 Gy", "experimental": "as §1, §2"}, "R10 cells": {"tested_on": "R10 cells", "test": "Clonogenic survival radiosensitization assay", "type": "cell-based, human", "conditions": "R10, MGMT methylated, 1–5 Gy", "experimental": "as §1, §2"}, "T98G cells": {"tested_on": "T98G cells", "test": "Clonogenic survival radiosensitization assay", "type": "cell-based, human", "conditions": "MGMT unmethylated, 1–5 Gy", "experimental": "as §1, §2"}, "UVW cells": {"tested_on": "UVW cells", "test": "Clonogenic survival radiosensitization assay", "type": "cell-based, human", "conditions": "MGMT methylated, 1–5 Gy", "experimental": "as §1, §2"}}, "note": "Entries after “also recorded” stand apart in the source; their conditions may differ."}
{"compound": "O=C(c1cc(Cc2n[nH]c(=O)c3ccccc23)ccc1F)N1CCN(C(=O)C2CC2)CC1", "note": "[olaparib, 4-[3-(4-cyclopropanecarbonylpiperazine-1-carbonyl)-4-fluorobenzyl]-2H-phthalazin-1-one]", "values": [{"measurement": "radioactivity in brain or spinal cord (brain penetration)", "setting": "[1]; male and female rats, single [14C]-olaparib 15 mg/kg, 5 MBq/kg, any timepoint", "result": "no brain penetration; also recorded: undetectable"}, {"measurement": "radioactivity concentration, Blood", "setting": "[1]; 1 hr", "result": "2.44 nmol equivalents of olaparib per gram of tissue"}, {"measurement": "radioactivity concentration, Brain", "setting": "[1]; 1 hr", "result": "BLQ"}, {"measurement": "radioactivity concentration, Choroid plexus", "setting": "[1]; 1 hr", "result": "0.618 nmol equivalents of olaparib per gram of tissue"}, {"measurement": "radioactivity concentration, Kidney cortex (outer)", "setting": "[1]; 1 hr", "result": "9.52 nmol equivalents of olaparib per gram of tissue"}, {"measurement": "radioactivity concentration, Large intestine mucosa", "setting": "[1]; 1 hr", "result": "12.1 nmol equivalents of olaparib per gram of tissue"}, {"measurement": "radioactivity concentration, Liver", "setting": "[1]; 1 hr", "result": "112 nmol equivalents of olaparib per gram of tissue"}, {"measurement": "radioactivity concentration, Meninges", "setting": "[1]; 1 hr", "result": "0.847 nmol equivalents of olaparib per gram of tissue"}, {"measurement": "radioactivity concentration, Pineal body", "setting": "[1]; 1 hr", "result": "2.13 nmol equivalents of olaparib per gram of tissue"}, {"measurement": "radioactivity concentration, Plasma", "setting": "[1]; 1 hr", "result": "9.69 nmol equivalents of olaparib per gram of tissue"}, {"measurement": "radioactivity concentration, Small intestine mucosa", "setting": "[1]; 1 hr", "result": "60.5 nmol equivalents of olaparib per gram of tissue"}, {"measurement": "radioactivity concentration, Spinal cord", "setting": "[1]; 1 hr", "result": "BLQ"}, {"measurement": "radioactivity concentration, Blood", "setting": "[1]; 4 hr", "result": "0.729 nmol equivalents of olaparib per gram of tissue"}, {"measurement": "radioactivity concentration, Brain", "setting": "[1]; 4 hr", "result": "BLQ"}, {"measurement": "radioactivity concentration, Choroid plexus", "setting": "[1]; 4 hr", "result": "0.228 nmol equivalents of olaparib per gram of tissue"}, {"measurement": "radioactivity concentration, Kidney cortex (outer)", "setting": "[1]; 4 hr", "result": "3.16 nmol equivalents of olaparib per gram of tissue"}, {"measurement": "radioactivity concentration, Large intestine mucosa", "setting": "[1]; 4 hr", "result": "11.1 nmol equivalents of olaparib per gram of tissue"}, {"measurement": "radioactivity concentration, Liver", "setting": "[1]; 4 hr", "result": "49.3 nmol equivalents of olaparib per gram of tissue"}, {"measurement": "radioactivity concentration, Meninges", "setting": "[1]; 4 hr", "result": "0.500 nmol equivalents of olaparib per gram of tissue"}, {"measurement": "radioactivity concentration, Pineal body", "setting": "[1]; 4 hr", "result": "0.318 nmol equivalents of olaparib per gram of tissue"}, {"measurement": "radioactivity concentration, Plasma", "setting": "[1]; 4 hr", "result": "2.11 nmol equivalents of olaparib per gram of tissue"}, {"measurement": "radioactivity concentration, Small intestine mucosa", "setting": "[1]; 4 hr", "result": "19.1 nmol equivalents of olaparib per gram of tissue"}, {"measurement": "radioactivity concentration, Spinal cord", "setting": "[1]; 4 hr", "result": "BLQ"}, {"measurement": "radioactivity concentration, Blood", "setting": "[1]; 8 hr", "result": "0.171 nmol equivalents of olaparib per gram of tissue"}, {"measurement": "radioactivity concentration, Brain", "setting": "[1]; 8 hr", "result": "BLQ"}, {"measurement": "radioactivity concentration, Choroid plexus", "setting": "[1]; 8 hr", "result": "BLQ"}, {"measurement": "radioactivity concentration, Kidney cortex (outer)", "setting": "[1]; 8 hr", "result": "1.49 nmol equivalents of olaparib per gram of tissue"}, {"measurement": "radioactivity concentration, Large intestine mucosa", "setting": "[1]; 8 hr", "result": "39.8 nmol equivalents of olaparib per gram of tissue"}, {"measurement": "radioactivity concentration, Liver", "setting": "[1]; 8 hr", "result": "14.7 nmol equivalents of olaparib per gram of tissue"}, {"measurement": "radioactivity concentration, Meninges", "setting": "[1]; 8 hr", "result": "BLQ"}, {"measurement": "radioactivity concentration, Pineal body", "setting": "[1]; 8 hr", "result": "0.248 nmol equivalents of olaparib per gram of tissue"}, {"measurement": "radioactivity concentration, Plasma", "setting": "[1]; 8 hr", "result": "0.180 nmol equivalents of olaparib per gram of tissue"}, {"measurement": "radioactivity concentration, Small intestine mucosa", "setting": "[1]; 8 hr", "result": "7.93 nmol equivalents of olaparib per gram of tissue"}, {"measurement": "radioactivity concentration, Spinal cord", "setting": "[1]; 8 hr", "result": "BLQ"}, {"measurement": "radioactivity concentration, Blood", "setting": "[1]; 24 hr", "result": "BLQ^3"}, {"measurement": "radioactivity concentration, Brain", "setting": "[1]; 24 hr", "result": "BLQ"}, {"measurement": "radioactivity concentration, Choroid plexus", "setting": "[1]; 24 hr", "result": "BLQ"}, {"measurement": "radioactivity concentration, Kidney cortex (outer)", "setting": "[1]; 24 hr", "result": "0.248 nmol equivalents of olaparib per gram of tissue"}, {"measurement": "radioactivity concentration, Large intestine mucosa", "setting": "[1]; 24 hr", "result": "2.10 nmol equivalents of olaparib per gram of tissue"}, {"measurement": "radioactivity concentration, Liver", "setting": "[1]; 24 hr", "result": "2.23 nmol equivalents of olaparib per gram of tissue"}, {"measurement": "radioactivity concentration, Meninges", "setting": "[1]; 24 hr", "result": "BLQ"}, {"measurement": "radioactivity concentration, Pineal body", "setting": "[1]; 24 hr", "result": "BLQ"}, {"measurement": "radioactivity concentration, Plasma", "setting": "[1]; 24 hr", "result": "0.046 nmol equivalents of olaparib per gram of tissue"}, {"measurement": "radioactivity concentration, Small intestine mucosa", "setting": "[1]; 24 hr", "result": "1.19 nmol equivalents of olaparib per gram of tissue"}, {"measurement": "radioactivity concentration, Spinal cord", "setting": "[1]; 24 hr", "result": "BLQ"}, {"measurement": "radioactivity concentration, Blood", "setting": "[1]; 72 hr", "result": "BLQ"}, {"measurement": "radioactivity concentration, Brain", "setting": "[1]; 72 hr", "result": "BLQ"}, {"measurement": "radioactivity concentration, Choroid plexus", "setting": "[1]; 72 hr", "result": "BLQ"}, {"measurement": "radioactivity concentration, Kidney cortex (outer)", "setting": "[1]; 72 hr", "result": "0.202 nmol equivalents of olaparib per gram of tissue"}, {"measurement": "radioactivity concentration, Large intestine mucosa", "setting": "[1]; 72 hr", "result": "BLQ"}, {"measurement": "radioactivity concentration, Liver", "setting": "[1]; 72 hr", "result": "0.604 nmol equivalents of olaparib per gram of tissue"}, {"measurement": "radioactivity concentration, Meninges", "setting": "[1]; 72 hr", "result": "BLQ"}, {"measurement": "radioactivity concentration, Pineal body", "setting": "[1]; 72 hr", "result": "BLQ"}, {"measurement": "radioactivity concentration, Plasma", "setting": "[1]; 72 hr", "result": "0.009 nmol equivalents of olaparib per gram of tissue"}, {"measurement": "radioactivity concentration, Small intestine mucosa", "setting": "[1]; 72 hr", "result": "BLQ"}, {"measurement": "radioactivity concentration, Spinal cord", "setting": "[1]; 72 hr", "result": "BLQ"}, {"measurement": "radioactivity concentration, Blood", "setting": "[1]; 168 hr", "result": "BLQ"}, {"measurement": "radioactivity concentration, Brain", "setting": "[1]; 168 hr", "result": "BLQ"}, {"measurement": "radioactivity concentration, Choroid plexus", "setting": "[1]; 168 hr", "result": "BLQ"}, {"measurement": "radioactivity concentration, Kidney cortex (outer)", "setting": "[1]; 168 hr", "result": "BLQ"}, {"measurement": "radioactivity concentration, Large intestine mucosa", "setting": "[1]; 168 hr", "result": "BLQ"}, {"measurement": "radioactivity concentration, Liver", "setting": "[1]; 168 hr", "result": "0.164 nmol equivalents of olaparib per gram of tissue"}, {"measurement": "radioactivity concentration, Meninges", "setting": "[1]; 168 hr", "result": "BLQ"}, {"measurement": "radioactivity concentration, Pineal body", "setting": "[1]; 168 hr", "result": "BLQ"}, {"measurement": "radioactivity concentration, Small intestine mucosa", "setting": "[1]; 168 hr", "result": "BLQ"}, {"measurement": "radioactivity concentration, Spinal cord", "setting": "[1]; 168 hr", "result": "BLQ"}, {"measurement": "SER (95% CI) 100nM", "setting": "E2 cells; olaparib 100 nM", "result": "1.237 (1.065 - 1.441)"}, {"measurement": "SER (95% CI) 500nM", "setting": "E2 cells; olaparib 500 nM", "result": "1.221 (1.076 - 1.378)"}, {"measurement": "SER (95% CI) 100nM", "setting": "G1 cells", "result": "1.225 (1.01 - 1.513)"}, {"measurement": "SER (95% CI) 100nM", "setting": "G7 cells; olaparib 100 nM", "result": "1.105 (1.018 - 1.200)"}, {"measurement": "SER (95% CI) 500nM", "setting": "G7 cells; olaparib 500 nM", "result": "1.188 (1.029 - 1.390)"}, {"measurement": "SER (95% CI) 100nM", "setting": "R10 cells; olaparib 100 nM", "result": "1.266 (0.991 - 1.565)"}, {"measurement": "SER (95% CI) 500nM", "setting": "R10 cells; olaparib 500 nM", "result": "1.281 (0.966 - 1.721)"}, {"measurement": "SER (95% CI) 100nM", "setting": "T98G cells; olaparib 100 nM", "result": "1.42 (1.128 - 1.883)"}, {"measurement": "SER (95% CI) 500nM", "setting": "T98G cells; olaparib 500 nM", "result": "1.584 (1.464 - 1.71)"}, {"measurement": "SER (95% CI) 100nM", "setting": "UVW cells; olaparib 100 nM", "result": "1.478 (1.28 - 1.726)"}, {"measurement": "SER (95% CI) 500nM", "setting": "UVW cells; olaparib 500 nM", "result": "1.695 (1.407 - 2.098)"}]}
